According to PubChem BioAssay (NCI):
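Grown in 96-well plates, cells were treated for 48 hours with each compound at five concentrations. Insufficient inhibition: endpoint recorded as highest concentration tested. Here, GI50 denotes the concentration required for 50% inhibition of growth. TGI marks complete inhibition of growth.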

Experiments:
Experiment in all cases: NCI anticancer screen, dose series, 48 h
A549 NSCLC = system: A549 NSCLC
HCC-2998 colon = system: HCC-2998 colon
HCT-15 colon = system: HCT-15 colon
NCI-H522 lung = system: NCI-H522 lung
OVCAR-4 ovarian = system: OVCAR-4 ovarian
OVCAR-5 ovarian = system: OVCAR-5 ovarian
RPMI-8226 leukemia = system: RPMI-8226 leukemia
SN12C renal = system: SN12C renal
EKVX NSCLC = system: EKVX NSCLC
DU-145 prostate = system: DU-145 prostate

COc1ccc(-c2csc3c2-n2cccc2C3=O)cc1O
GI50 (A549 NSCLC): 0.112 µM
TGI (A549 NSCLC): > 91.5 µM
GI50 (HCC-2998 colon): 0.454 µM
TGI (HCC-2998 colon): 8.71 µM
GI50 (HCT-15 colon): < 0.0132 µM
TGI (HCT-15 colon): > 100 µM
GI50 (NCI-H522 lung): < 0.01 µM
TGI (NCI-H522 lung): 0.0434 µM
GI50 (OVCAR-4 ovarian): 0.579 µM
TGI (OVCAR-4 ovarian): > 100 µM
GI50 (OVCAR-5 ovarian): 1.5 µM
TGI (OVCAR-5 ovarian): > 100 µM
GI50 (RPMI-8226 leukemia): 0.0176 µM
TGI (RPMI-8226 leukemia): 3.16 µM
GI50 (SN12C renal): 0.0365 µM
TGI (SN12C renal): > 100 µM

CC(=O)O[C@H]1CC[C@@]2(C)C(=CC[C@@H]3C2CC[C@]2(C)Nc4[nH]ncc4CC32)C1 (stereo partly specified)
TGI (A549 NSCLC): > 100 µM
TGI (EKVX NSCLC): > 100 µM
TGI (HCC-2998 colon): > 100 µM
TGI (HCT-15 colon): 32.8 µM
TGI (OVCAR-4 ovarian): 37.2 µM
TGI (OVCAR-5 ovarian): > 100 µM
TGI (RPMI-8226 leukemia): 65.9 µM

COc1cc2c(c(OC)c1OC)-c1ccc(SC)c(=O)cc1C(CC(=O)Oc1cccc(C#N)c1)C2 (stereo unspecified)
TGI (A549 NSCLC): > 100 µM
TGI (EKVX NSCLC): > 100 µM
TGI (HCC-2998 colon): 1.59 µM
TGI (HCT-15 colon): 6.47 µM
TGI (OVCAR-4 ovarian): > 100 µM
TGI (OVCAR-5 ovarian): > 100 µM
TGI (RPMI-8226 leukemia): 21.9 µM
TGI (SN12C renal): > 77.7 µM

COc1ccc2c(c1)CCCC1C3=NCCC3(C)CSC21 (stereo unspecified)
TGI (A549 NSCLC): > 100 µM
TGI (NCI-H522 lung): > 100 µM
TGI (OVCAR-4 ovarian): > 100 µM
TGI (RPMI-8226 leukemia): > 100 µM
TGI (SN12C renal): > 100 µM

CCOC(=O)c1cnc2cc3cccccc3n2c1=O
TGI (A549 NSCLC): > 100 µM
TGI (EKVX NSCLC): > 100 µM
TGI (HCC-2998 colon): > 100 µM
TGI (HCT-15 colon): > 100 µM
TGI (OVCAR-4 ovarian): > 100 µM
TGI (OVCAR-5 ovarian): > 100 µM
TGI (RPMI-8226 leukemia): > 100 µM
TGI (SN12C renal): > 100 µM

COc1cc2c3c(n(CCCNCCNCCCN)c(=O)c2cc1OC)-c1cc2c(cc1C3=O)OCO2
GI50 (A549 NSCLC): 10.8 µM
TGI (A549 NSCLC): > 100 µM
GI50 (DU-145 prostate): 4.6 µM
TGI (DU-145 prostate): 17 µM
GI50 (EKVX NSCLC): 29.8 µM
TGI (EKVX NSCLC): 69.9 µM
GI50 (HCT-15 colon): 2.24 µM
TGI (HCT-15 colon): 20 µM
GI50 (NCI-H522 lung): 0.575 µM
TGI (NCI-H522 lung): 2.86 µM
GI50 (OVCAR-4 ovarian): 4.64 µM
TGI (OVCAR-4 ovarian): 19.9 µM
GI50 (OVCAR-5 ovarian): 3.82 µM
TGI (OVCAR-5 ovarian): 21.4 µM
GI50 (SN12C renal): 1.66 µM
TGI (SN12C renal): 7.17 µM

COc1cc2c3c(n(C)c(=O)c2cc1OC)-c1cc2c(cc1/C3=C/[C@H](N)CCCCN)OCO2
GI50 (A549 NSCLC): 0.622 µM
TGI (A549 NSCLC): 24.5 µM
GI50 (DU-145 prostate): 1.07 µM
TGI (DU-145 prostate): 50 µM
GI50 (EKVX NSCLC): 5.93 µM
TGI (EKVX NSCLC): > 24.8 µM
GI50 (HCT-15 colon): 6.8 µM
TGI (HCT-15 colon): > 86.4 µM
GI50 (NCI-H522 lung): 0.665 µM
TGI (NCI-H522 lung): 5.85 µM
GI50 (OVCAR-4 ovarian): 2.27 µM
TGI (OVCAR-4 ovarian): 7.92 µM
GI50 (OVCAR-5 ovarian): 0.885 µM
TGI (OVCAR-5 ovarian): 5.65 µM
GI50 (RPMI-8226 leukemia): 1.59 µM
TGI (RPMI-8226 leukemia): > 61.5 µM
GI50 (SN12C renal): 0.662 µM
TGI (SN12C renal): 6.39 µM

O=C(O)CCCNS(=O)(=O)c1ccc2ccccc2c1
TGI (A549 NSCLC): > 100 µM
TGI (EKVX NSCLC): > 100 µM
TGI (HCC-2998 colon): > 100 µM
TGI (HCT-15 colon): > 100 µM
TGI (NCI-H522 lung): > 100 µM
TGI (OVCAR-4 ovarian): > 100 µM
TGI (OVCAR-5 ovarian): > 100 µM
TGI (RPMI-8226 leukemia): > 100 µM
TGI (SN12C renal): > 100 µM

CCCCCCN1CCN(Cc2ccc(N(CC)CC)cc2)C(=O)C1=O
GI50 (A549 NSCLC): 4.29 µM
TGI (A549 NSCLC): > 100 µM
GI50 (DU-145 prostate): 3.38 µM
TGI (DU-145 prostate): 48.7 µM
GI50 (HCC-2998 colon): 6.45 µM
TGI (HCC-2998 colon): 28.2 µM
GI50 (HCT-15 colon): 1.07 µM
TGI (HCT-15 colon): > 100 µM
GI50 (NCI-H522 lung): 2.03 µM
TGI (NCI-H522 lung): 5.14 µM
GI50 (OVCAR-4 ovarian): 6.73 µM
TGI (OVCAR-4 ovarian): 79.6 µM
GI50 (OVCAR-5 ovarian): 5.41 µM
TGI (OVCAR-5 ovarian): > 100 µM
GI50 (RPMI-8226 leukemia): 3.63 µM
TGI (RPMI-8226 leukemia): 19.2 µM
GI50 (SN12C renal): 5.19 µM
TGI (SN12C renal): 93.9 µM

O=CN1CCN(C=S)CC1
TGI (A549 NSCLC): > 100 µM
TGI (EKVX NSCLC): > 100 µM
TGI (HCC-2998 colon): > 100 µM
TGI (HCT-15 colon): > 100 µM
TGI (NCI-H522 lung): > 100 µM
TGI (OVCAR-4 ovarian): > 100 µM
TGI (OVCAR-5 ovarian): > 100 µM
TGI (RPMI-8226 leukemia): > 100 µM
TGI (SN12C renal): > 100 µM

OCc1ccc(Oc2c3ccccc3nc3occc23)cc1
GI50 (A549 NSCLC): 36.5 µM
TGI (A549 NSCLC): > 100 µM
GI50 (DU-145 prostate): 33.6 µM
TGI (DU-145 prostate): > 100 µM
GI50 (HCT-15 colon): 19.4 µM
TGI (HCT-15 colon): 47.3 µM
GI50 (NCI-H522 lung): > 100 µM
TGI (NCI-H522 lung): > 100 µM
GI50 (OVCAR-4 ovarian): 37.9 µM
TGI (OVCAR-4 ovarian): > 100 µM
GI50 (OVCAR-5 ovarian): 29.5 µM
TGI (OVCAR-5 ovarian): > 100 µM
GI50 (RPMI-8226 leukemia): 20.7 µM
TGI (RPMI-8226 leukemia): 65.5 µM
GI50 (SN12C renal): 24.5 µM
TGI (SN12C renal): 62.3 µM

NC(N)=N/N=C/c1c(-c2ccc(Cl)c([N+](=O)[O-])c2)nc2ccccn12
GI50 (A549 NSCLC): 1.63 µM
TGI (A549 NSCLC): 2.99 µM
GI50 (DU-145 prostate): 1.94 µM
TGI (DU-145 prostate): 5.6 µM
GI50 (EKVX NSCLC): 2.5 µM
TGI (EKVX NSCLC): 13 µM
GI50 (HCC-2998 colon): 1.5 µM
TGI (HCC-2998 colon): 3.1 µM
GI50 (HCT-15 colon): 9.18 µM
TGI (HCT-15 colon): 56.1 µM
GI50 (OVCAR-5 ovarian): 1.73 µM
TGI (OVCAR-5 ovarian): 3.21 µM
GI50 (SN12C renal): 1.87 µM
TGI (SN12C renal): 3.66 µM

COc1ccc(C(O)/C(=C/n2ccnc2)c2ccccc2)cc1OC (stereo unspecified)
TGI (A549 NSCLC): > 100 µM
TGI (EKVX NSCLC): > 100 µM
TGI (HCC-2998 colon): > 100 µM
TGI (HCT-15 colon): > 100 µM
TGI (OVCAR-4 ovarian): > 100 µM
TGI (OVCAR-5 ovarian): > 100 µM
TGI (RPMI-8226 leukemia): > 100 µM
TGI (SN12C renal): > 100 µM

Cc1ccc(F)cc1NC(=O)c1cc(Cl)ccc1Nc1ccccc1
GI50 (A549 NSCLC): > 100 µM
TGI (A549 NSCLC): > 100 µM
GI50 (DU-145 prostate): > 100 µM
TGI (DU-145 prostate): > 100 µM
GI50 (HCC-2998 colon): > 100 µM
TGI (HCC-2998 colon): > 100 µM
GI50 (HCT-15 colon): > 100 µM
TGI (HCT-15 colon): > 100 µM
GI50 (NCI-H522 lung): > 100 µM
TGI (NCI-H522 lung): > 100 µM
GI50 (OVCAR-4 ovarian): 15.9 µM
TGI (OVCAR-4 ovarian): > 100 µM
GI50 (OVCAR-5 ovarian): > 100 µM
TGI (OVCAR-5 ovarian): > 100 µM
GI50 (RPMI-8226 leukemia): 51.2 µM
TGI (RPMI-8226 leukemia): > 100 µM
GI50 (SN12C renal): > 100 µM
TGI (SN12C renal): > 100 µM

CN(CCN(C)C(=O)CCOS(C)(=O)=O)C(=O)CCOS(C)(=O)=O
TGI (A549 NSCLC): > 100 µM
TGI (EKVX NSCLC): > 100 µM
TGI (HCC-2998 colon): > 100 µM
TGI (HCT-15 colon): > 100 µM
TGI (NCI-H522 lung): > 100 µM
TGI (OVCAR-4 ovarian): > 100 µM
TGI (OVCAR-5 ovarian): > 100 µM
TGI (RPMI-8226 leukemia): > 100 µM
TGI (SN12C renal): > 100 µM

c1cncc(CNc2ncn[nH]2)c1
TGI (A549 NSCLC): > 100 µM
TGI (DU-145 prostate): > 100 µM
TGI (EKVX NSCLC): > 100 µM
TGI (HCT-15 colon): > 100 µM
TGI (NCI-H522 lung): > 100 µM
TGI (OVCAR-4 ovarian): > 100 µM
TGI (OVCAR-5 ovarian): > 100 µM
TGI (RPMI-8226 leukemia): > 100 µM
TGI (SN12C renal): > 100 µM

NC(=O)c1c2c(cc3c(=O)c4ccccc4[nH]c13)CCCC2
TGI (A549 NSCLC): > 100 µM
TGI (EKVX NSCLC): > 100 µM
TGI (HCC-2998 colon): > 100 µM
TGI (HCT-15 colon): > 100 µM
TGI (NCI-H522 lung): > 100 µM
TGI (OVCAR-4 ovarian): > 100 µM
TGI (OVCAR-5 ovarian): > 100 µM
TGI (RPMI-8226 leukemia): > 78.7 µM
TGI (SN12C renal): > 100 µM

Cc1c(O)c(=O)ccn1CCO
TGI (A549 NSCLC): > 100 µM
TGI (EKVX NSCLC): > 100 µM
TGI (HCT-15 colon): > 100 µM
TGI (NCI-H522 lung): > 100 µM
TGI (OVCAR-4 ovarian): > 100 µM
TGI (OVCAR-5 ovarian): > 100 µM
TGI (RPMI-8226 leukemia): > 100 µM
TGI (SN12C renal): > 100 µM

Cc1ccc(Oc2nc3ccccc3cc2-c2nnc(Cn3c(COc4ccccc4)nc4ccccc43)o2)cc1
GI50 (A549 NSCLC): 8.5 µM
TGI (A549 NSCLC): 24.2 µM
GI50 (DU-145 prostate): 5.46 µM
TGI (DU-145 prostate): 45.7 µM
GI50 (HCC-2998 colon): 4.4 µM
TGI (HCC-2998 colon): 15.3 µM
GI50 (HCT-15 colon): 2.14 µM
TGI (HCT-15 colon): 7.69 µM
GI50 (NCI-H522 lung): 6.34 µM
TGI (NCI-H522 lung): 21.1 µM
GI50 (OVCAR-4 ovarian): 2.36 µM
TGI (OVCAR-4 ovarian): 10.2 µM
GI50 (RPMI-8226 leukemia): 2.39 µM
TGI (RPMI-8226 leukemia): 8.45 µM
GI50 (SN12C renal): 2.76 µM
TGI (SN12C renal): 11.9 µM
